Among the data in US10125134B2 (Mirati Therapeutics, Inc., priority 2016, dated 2018) are IC50 and POC values, retold here.

Like-named read-outs stand apart in the source and are kept apart here. Bounds are passed on as bounds.

Experiment [1] concerns NCI-H358 cells (express KRas G12C), Phospho-ERK. The experiment in a line: Cellular inhibition of KRas G12C: Phospho-ERK in NCI-H358 cells. The format is cell-based. Conditions: Homo sapiens. The essentials: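 IC50 derived by 4-parameter fit of GAPDH-normalized pERK(Thr202/Tyr204) signal, as percent of DMSO control. Signal came from in-cell immunodetection with infrared secondaries after 3 h compound exposure of KRas G12C NCI-H358 cells at 0.5% DMSO.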

Another experiment deals with KRas G12C (Homo sapiens, UniProt P01116, C118S/C51S/C80L/G12C). Briefly: KRas G12C Modification Assay (LCMS detection of covalent adduct). The format is binding. The procedure, abridged: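 Cys-light KRas G12C mutant protein incubated with compound in K-Ras assay buffer, reactions quenched at set time points with 25 mM acetic acid and analysed by intact-protein LC/MS on a C-3 column. Deconvoluted mass heights expressed as percent of control (POC) relative to compound-free protein.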

The mark [2] stands for this setting: pERK(Thr202/Tyr204) normalized with GAPDH, NCI-H358 cells, 3 hours, read-out: IC50.
Setting [3] is: normalized percent of control, tested at 5 μM concentration for 3 hours.
Setting [4] is: NCI-H358, 3 h, pERK(Thr202/Tyr204) normalized with GAPDH, NCI-H358 cells, 3 hours, read-out: IC50.

For the compound `C=CC(=O)N1CCN(c2nc(OC[C@@H]3CCCN3C)nc3c2CCN(c2c(C(C)C)ccc4[nH]ncc24)C3)CC1` [Example 248, (S)-1-(4-(7-(5-isopropyl-1H-indazol-4-yl)-2-((1-methylpyrrolidin-2-yl)methoxy)-5,6,7,8-tetrahydropyrido[3,4-d]pyrimidin-4-yl)piperazin-1-yl)prop-2-en-1-one], the IC50 (as a rule, the concentration that inhibits the measured activity by half) in experiment [1] (NCI-H358, 3 h) was more than 1000 nM. The POC entry on KRas G12C (5 µM) was “C (key: “A”≤25% POC; “B”>25% POC−≤50% POC; “C”>50% POC)”.
As for `C=CC(=O)N1CCN(c2nc(OC[C@@H]3CCCN3C)nc3c2CCN(c2c(F)c(O)cc4ccccc24)C3)CC1` [Example 249, 1-[4-[7-(2-fluoro-3-hydroxy-1-naphthyl)-2-[[(2S)-1-methylpyrrolidin-2-yl]methoxy]-6,8-dihydro-5H-pyrido[3,4-d]pyrimidin-4-yl]piperazin-1-yl]prop-2-en-1-one], in experiment [1] (setting [2]), the IC50 lay in the range of 0.1 to 1000 nM. Further, on KRas G12C (setting [3]), the POC entry was “C (“C”>50% POC)”.
For `C=CC(=O)N1CCN(c2nc(OC[C@@H]3CCCN3C)nc3c2CCN(c2c(Cl)ccc4[nH]ncc24)C3)CC1` [Example 250, 1-[4-[7-(5-chloro-1H-indazol-4-yl)-2-[[(2S)-1-methylpyrrolidin-2-yl]methoxy]-6,8-dihydro-5H-pyrido[3,4-d]pyrimidin-4-yl]piperazin-1-yl]prop-2-en-1-one], the IC50 in experiment [1] (setting [4]) was more than 1000 nM. In addition, the POC result on KRas G12C (setting [3]) is given as “C (“C”>50% POC)”.
In the case of `C=CC(=O)N1CCN(c2nc(OC[C@@H]3CCCN3C(C)C)nc3c2CCN(c2cccc4ccccc24)C3)CC1CC#N` (stereo partly drawn) [Example 252, 2-[4-[2-[[(2S)-1-isopropylpyrrolidin-2-yl]methoxy]-7-(1-naphthyl)-6,8-dihydro-5H-pyrido[3,4-d]pyrimidin-4-yl]-1-prop-2-enoyl-piperazin-2-yl]acetonitrile], the IC50 in experiment [1] (setting [2]) was 0.1 to 1000 nM. Besides, the POC entry at KRas G12C (setting [3]) is on record as “C (“C”>50% POC)”.
For `C=CC(=O)N1CCN(c2nc(OC[C@@H]3CCCN3C)nc3c2CCN(c2cccc4ccc(Cl)cc24)C3)CC1CC#N` (stereo partly drawn) [Example 253, 2-(1-acryloyl-4-(7-(7-chloronaphthalen-1-yl)-2-(((S)-1-methylpyrrolidin-2-yl)methoxy)-5,6,7,8-tetrahydropyrido[3,4-d]pyrimidin-4-yl)piperazin-2-yl)acetonitrile], the IC50 in experiment [1] (setting [4]) was in the range of 0.1 to 1000 nM. The POC entry on KRas G12C (setting [3]) is listed as “C (“C”>50% POC)”.
In the same order, the values of `C=CC(=O)N1CCN(c2nc(OC[C@@H]3CCCN3C)nc3c2CCN(c2cccc4c(F)cccc24)C3)CC1CC#N` (stereo partly drawn) [Example 254, 2-[4-[7-(5-fluoro-1-naphthyl)-2-[[(2S)-1-methylpyrrolidin-2-yl]methoxy]-6,8-dihydro-5H-pyrido[3,4-d]pyrimidin-4-yl]-1-prop-2-enoyl-piperazin-2-yl]acetonitrile] are 0.1 to 1000 nM and “C (“C”>50% POC)”.
The like results for `C=CC(=O)N1CCN(c2nc(OC[C@@H]3CCCN3C)nc3c2CCN(c2cccc4ccc(OC)cc24)C3)CC1CC#N` (stereo partly drawn) [Example 255, 2-[4-[7-(7-methoxy-1-naphthyl)-2-[[(2S)-1-methylpyrrolidin-2-yl]methoxy]-6,8-dihydro-5H-pyrido[3,4-d]pyrimidin-4-yl]-1-prop-2-enoyl-piperazin-2-yl]acetonitrile] were, in that order, more than 1000 nM and “A (“A”≤25% POC)”.
On to `C=CC(=O)N1CCN(c2nc(OC[C@@H]3CCCN3C)nc3c2CCN(c2cccc4ccccc24)C3)CC1COC` (stereo partly drawn) [Example 256, 1-(2-(methoxymethyl)-4-(2-(((S)-1-methylpyrrolidin-2-yl)methoxy)-7-(naphthalen-1-yl)-5,6,7,8-tetrahydropyrido[3,4-d]pyrimidin-4-yl)piperazin-1-yl)prop-2-en-1-one], for which the IC50 in experiment [1] (setting [4]) was more than 1000 nM. The POC entry on KRas G12C (setting [3]) is “C (“C”>50% POC)”.
`C=CC(=O)N1CCN(c2nc(OC[C@@H]3CCCN3C)nc3c2CCN(c2nccc4ccccc24)C3)CC1CC#N` (stereo partly drawn) [Example 258, 2-[4-[7-(1-isoquinolyl)-2-[[(2S)-1-methylpyrrolidin-2-yl]methoxy]-6,8-dihydro-5H-pyrido[3,4-d]pyrimidin-4-yl]-1-prop-2-enoyl-piperazin-2-yl]acetonitrile]: the IC50 in experiment [1] (setting [4]) is more than 1000 nM. The POC result at KRas G12C (setting [3]) is given as “C (“C”>50% POC)”.
